Assay results reported in ChEMBL document CHEMBL1133185, “Inhibition of clinically relevant mutant variants of HIV-1 by quinazolinone non-nucleoside reverse transcriptase inhibitors” (J Med Chem, 2000).

Key:
[1] = test system: Human immunodeficiency virus 1; assay: Compound was evaluated for antiviral activity against L100I mutant virus; assay type: functional
[2] = test system: Human immunodeficiency virus 1; assay: Antiviral activity toward K103N mutant HIV-1 virus as protein binding adjusted (PB adj).; assay type: functional
[3] = test system: Human immunodeficiency virus 1; assay: Antiviral activity against HIV-1 K103N mutant virus.; assay type: functional
[4] = target: Human immunodeficiency virus type 1 reverse transcriptase (Human immunodeficiency virus 1, UniProt Q72547); assay: Inhibition of HIV-1 reverse transcriptase.
[5] = test system: Human immunodeficiency virus 1; assay: Antiviral activity was evaluated for the inhibition of wild-type RF strain of HIV-1 in an in vitro enzyme assay.; assay type: functional
[6] = test system: Human immunodeficiency virus 1; assay: Compound was evaluated for the inhibition of human plasma protein binding adjusted (PB Adj) wild-type RF strain of HIV-1; assay type: functional; settings: Human immunodeficiency virus 1, Plasma
[7] = test system: Human immunodeficiency virus 1; assay: The compound was evaluated for the effect of human plasma protein binding on antiviral efficacy; assay type: functional; settings: Human immunodeficiency virus 1, Plasma
[8] = test system: Human immunodeficiency virus 1; assay: Plasma Potency against Mutant HIV-1 K103N; assay type: functional; settings: Human immunodeficiency virus 1, Plasma
[9] = test system: Human immunodeficiency virus 1; assay: Potency against Mutant HIV-1 K103N; assay type: functional
[10] = test system: Human immunodeficiency virus 1; assay: Calculated Potency against Mutant HIV-1 K103N; assay type: functional
[11] = test system: Human immunodeficiency virus 1; assay: Calculated Potency against Mutant HIV-1 sL100I; assay type: functional
[12] = test system: Human immunodeficiency virus 1; assay: Plasma Potency against Mutant HIV-1 sL100I; assay type: functional; settings: Human immunodeficiency virus 1, Plasma
[13] = test system: Human immunodeficiency virus 1; assay: Potency against Mutant HIV-1 sL100I; assay type: functional
MT2 [14] = assay: Antiviral activity against HIV-2 in MT-2 cells by yield assay; assay type: functional; settings: Homo sapiens
MT2 [15] = assay: Antiviral activity against RF strain of HIV in MT-2 cells by RNA assay; assay type: functional; settings: Homo sapiens
MT2 [16] = assay: Antiviral activity against RF strain of HIV in MT-2 cells by yield assay; assay type: functional; settings: Homo sapiens
MT2 [17] = assay: Protein Binding was evaluated by PB shift in MT-2 by RNA assay; assay type: functional; settings: Homo sapiens
[18] = test system: Human immunodeficiency virus 1; assay: Calculated Potency against Mutant HIV-1 sV179D/L100I/Y181C; assay type: functional
[19] = test system: Human immunodeficiency virus 1; assay: Plasma Potency against Mutant HIV-1 sV179D/L100I/Y181C; assay type: functional
[20] = test system: Human immunodeficiency virus 1; assay: Potency against Mutant HIV-1 sV179D/L100I/Y181C; assay type: functional
[21] = test system: Human immunodeficiency virus 1; assay: Antiviral activity against Thai 9466, a wild-type clinical strain of HIV in PBMC by P24 assay; assay type: functional
[22] = test system: Human immunodeficiency virus 1; assay: Antiviral activity against A018C, Zidovudine resistant clinical strain of HIV in PBMC by P24 assay; assay type: functional
[23] = test system: Human immunodeficiency virus 1; assay: Compound was evaluated for the inhibition of wide-type RF strain of HIV-1; assay type: functional
[24] = test system: Human immunodeficiency virus 1; assay: Plasma antiviral activity was evaluated for RF strain of HIV-1; assay type: functional
Homo sapiens [25] = species on record: Homo sapiens; assay: percentage of the free compound in human serum; assay type: functional
Homo sapiens [26] = species on record: Homo sapiens; assay: percentage of the free compound in tissue culture medium; assay type: functional
[27] = test system: Human immunodeficiency virus 1; assay: Potency of second-generation NNRTIs against Mutant HIV-1 K103N free drug; assay type: functional
[28] = test system: Human immunodeficiency virus 1; assay: Potency of second-generation NNRTIs against Mutant HIV-1 K103N plasma; Vlaue ranges from 3400-8100; assay type: functional
[29] = test system: Human immunodeficiency virus 1; assay: In vitro antiviral activity against HIV-1 (L100I).; assay type: functional
[30] = test system: Human immunodeficiency virus 1; assay: Potency of second-generation NNRTIs against Mutant HIV-1 sL100I; assay type: functional
[31] = test system: Human immunodeficiency virus 1; assay: Potency of second-generation NNRTIs against Mutant HIV-1 sL100I plasma; Value ranges from 6600-15700; assay type: functional
MT2 [32] = assay: Antiviral activity of Protein Binding of compound was evaluated for HIV-2 virus expressed MT-2 by yield; assay type: functional, Human immunodeficiency virus 2; settings: Homo sapiens
MT2 [33] = assay: Antiviral activity of Protein Binding of compound was evaluated for E virus expressed MT-2 by yield; assay type: functional, Human immunodeficiency virus 1; settings: Homo sapiens
MT2 [34] = assay: Antiviral activity of Protein Binding of compound was evaluated for PB shift virus expressed MT-2 by RNA; assay type: functional, Human immunodeficiency virus 1; settings: Homo sapiens
MT2 [35] = assay: Antiviral activity of Protein Binding of compound was evaluated for RF virus expressed MT-2 by RNA; assay type: functional, Human immunodeficiency virus 1; settings: Homo sapiens
MT2 [36] = assay: Antiviral activity of Protein Binding of compound was evaluated for RF virus expressed MT-2 by yield; assay type: functional, Human immunodeficiency virus 1; settings: Homo sapiens
[37] = test system: Human immunodeficiency virus 1; assay: Potency of second-generation NNRTIs against Mutant HIV-1 sV179D/L100I/Y181C; assay type: functional
[38] = test system: Human immunodeficiency virus 1; assay: Potency of second-generation NNRTIs against Mutant HIV-1 sV179D/L100I/Y181C free drug; assay type: functional
[39] = test system: Human immunodeficiency virus 1; assay: Potency of second-generation NNRTIs against Mutant HIV-1 sV179D/L100I/Y181C plasma; value ranges from 130000-309500; assay type: functional
[40] = test system: Human immunodeficiency virus 1; assay: Antiviral activity of Protein Binding of compound was evaluated for A 018C virus expressed PBMC by P24; assay type: functional
[41] = test system: Human immunodeficiency virus 1; assay: Antiviral activity of Protein Binding of compound was evaluated for Thai 9466 virus expressed PBMC by P24; assay type: functional
[42] = percentage in tissue culture medium
[43] = test system: Human immunodeficiency virus 1; assay: Compound was evaluated for the inhibition of wilde-type RF strain of HIV-1; assay type: functional
Homo sapiens [44] = species on record: Homo sapiens; assay: percentage in human serum; value ranges from -0.2-0.5; assay type: functional
[45] = test system: Human immunodeficiency virus 1; assay: Potency of second-generation NNRTIs against Mutant HIV-1 sL100I free drug; assay type: functional
[46] = test system: Human immunodeficiency virus 1; assay: Potency of second-generation NNRTIs against Mutant HIV-1 K103N; assay type: functional

Question: For `O=C1Nc2ccc(F)c(Cl)c2[C@@](C#Cc2ccccn2)(C(F)(F)F)N1`, which IC90 [1] is on record?
Answer: The IC90 was 0.044 µM.

Question: What about the IC90 [2] of the same molecule?
Answer: Its IC90 is 1.31 µM.

Question: And the IC90 ([3]; Human immunodeficiency virus 1)?
Answer: The IC90 was 0.073 µM.

Question: And the IC50 [4]?
Answer: Its IC50 is 0.08 µM.

Question: What about the IC90 [5] of the same molecule?
Answer: Its IC90 is 0.0023 µM.

Question: And the IC90 [6]?
Answer: The IC90 was 0.041 µM.

Question: For `CCC#C[C@]1(C(F)(F)F)NC(=O)Nc2ccc(F)c(F)c21`, which IC90 [1] is on record?
Answer: The IC90 was 0.018 µM.

Question: And the IC90 [2]?
Answer: The IC90 was 0.093 µM.

Question: And the IC90 ([3]; Human immunodeficiency virus 1)?
Answer: Its IC90 is 0.014 µM.

Question: What about the IC50 [4] of the same molecule?
Answer: Its IC50 is 0.074 µM.

Question: And the IC90 [7]?
Answer: The IC90 was 0.01 µM.

Question: What about the IC90 [5] of the same molecule?
Answer: Its IC90 is 0.0015 µM.

Question: With `O=C1Nc2ccc(Cl)cc2[C@@](C#CC2CC2)(C(F)(F)F)N1` (stereo in doubt) as the molecule, how does the IC90 [8] read?
Answer: Its IC90 is 0.21 µM.

Question: What about the IC90 [9] of the same molecule?
Answer: The IC90 was 0.01 µM.

Question: What about the IC90 [10] of the same molecule?
Answer: Its IC90 is 0.0031 µM.

Question: And the IC90 [11]?
Answer: Its IC90 is 0.004 µM.

Question: And the IC90 [3]?
Answer: Its IC90 is 0.01 µM.

Question: What about the IC90 [12] of the same molecule?
Answer: The IC90 was 0.27 µM.

Question: And the IC90 [13]?
Answer: The IC90 was 0.013 µM.

Question: What about the IC90 (MT2 [14]) of the same molecule?
Answer: The IC90 was greater than 2.8 µM.

Question: And the IC90 (MT2 [15])?
Answer: Its IC90 is 0.002 µM.

Question: What about the IC90 (MT2 [16]) of the same molecule?
Answer: The IC90 was 0.0027 µM.

Question: And the IC90 (MT2 [17])?
Answer: Its IC90 is 0.017 µM.

Question: What about the IC90 [18] of the same molecule?
Answer: The IC90 was 0.059 µM.

Question: What about the IC90 [19] of the same molecule?
Answer: The IC90 was 3.9 µM.

Question: And the IC90 [20]?
Answer: Its IC90 is 0.19 µM.

Question: And the IC90 [21]?
Answer: Its IC90 is 0.005 µM.

Question: And the IC90 [22]?
Answer: The IC90 was 0.0025 µM.

Question: What about the IC90 [23] of the same molecule?
Answer: The IC90 was 0.002 µM.

Question: What about the IC90 [24] of the same molecule?
Answer: Its IC90 is 0.04 µM.

Question: What about the Free (Homo sapiens [25]) of the same molecule?
Answer: Its Free is 1.5%.

Question: And the Free (Homo sapiens [26])?
Answer: Its Free is 31%.

Question: What does the source list for `O=C1Nc2ccc(Cl)cc2[C@@](C#CC2CC2)(C(F)(F)F)O1` [EFAVIRENZ]?
Answer: IC90 [27]: 0.017 µM; IC90 [28]: 8.1 µM; IC90 [2]: 1.06 µM; IC90 ([3]; Human immunodeficiency virus 1): 0.064 µM; IC90 [29]: 0.077 µM; IC90 [30]: 0.12 µM; IC90 [31]: 15.7 µM; IC90 (MT2 [32]): > 3 µM; IC90 (MT2 [33]): 0.0028 µM; IC90 (MT2 [34]): 0.017 µM; IC90 (MT2 [35]): 0.0017 µM; IC90 (MT2 [36]): 0.0024 µM; IC90 [37]: 2.4 µM; IC90 [38]: 0.65 µM; IC90 [39]: 310 µM; IC90 [40]: 0.0028 µM; IC90 [41]: 0.0085 µM; Free [42]: 27%; IC90 [43]: 0.0017 µM; Free (Homo sapiens [44]): 0.5%; IC90 [45]: 0.033 µM; IC90 [46]: 0.064 µM
